One data set has as its target T1, Leukotriene C4 synthase (Cavia porcellus, UniProt A6XA80).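 Further: enzyme inhibition assay of leukotriene C4 synthase, using LTA4 as the substrate; in other assays of this panel Not Active means under 50% inhibition at 10 µM.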
T1 sequence (A6XA80 whole entry): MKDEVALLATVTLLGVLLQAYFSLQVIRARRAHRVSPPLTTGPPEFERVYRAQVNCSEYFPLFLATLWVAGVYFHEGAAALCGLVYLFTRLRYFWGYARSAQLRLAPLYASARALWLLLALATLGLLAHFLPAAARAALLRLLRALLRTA
In kind it is tissue-based, Lung.

In data set [1] the target is Tyrosine-protein kinase Fyn (Homo sapiens, UniProt P06241). Briefly: biochemical. In kind it is cell-based, Insect cells.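 Further: enzymatic inhibition of Fyn kinase activity measured with Poly(Glu:Tyr) as the phosphorylation substrate; in other assays of this panel Not Active means under 50% inhibition at 10 µM.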
Tyrosine-protein kinase Fyn, sequence (P06241 whole entry): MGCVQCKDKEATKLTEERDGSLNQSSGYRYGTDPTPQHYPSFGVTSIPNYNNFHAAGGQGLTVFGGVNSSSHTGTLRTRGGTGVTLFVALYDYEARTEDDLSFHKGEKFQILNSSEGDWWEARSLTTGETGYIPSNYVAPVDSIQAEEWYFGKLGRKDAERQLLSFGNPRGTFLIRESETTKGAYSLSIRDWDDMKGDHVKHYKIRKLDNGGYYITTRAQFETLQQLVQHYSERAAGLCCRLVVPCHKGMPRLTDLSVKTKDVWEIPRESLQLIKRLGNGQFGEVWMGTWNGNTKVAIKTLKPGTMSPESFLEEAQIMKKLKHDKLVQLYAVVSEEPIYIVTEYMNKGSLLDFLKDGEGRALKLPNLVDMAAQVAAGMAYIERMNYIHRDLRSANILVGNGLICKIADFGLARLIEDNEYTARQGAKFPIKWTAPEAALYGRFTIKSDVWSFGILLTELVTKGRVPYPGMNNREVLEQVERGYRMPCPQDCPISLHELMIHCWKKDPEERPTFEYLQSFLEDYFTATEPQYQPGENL
A further data set has as its target T2, Progesterone receptor (Bos taurus, UniProt Q690N0).
T2 sequence (Q690N0 whole entry): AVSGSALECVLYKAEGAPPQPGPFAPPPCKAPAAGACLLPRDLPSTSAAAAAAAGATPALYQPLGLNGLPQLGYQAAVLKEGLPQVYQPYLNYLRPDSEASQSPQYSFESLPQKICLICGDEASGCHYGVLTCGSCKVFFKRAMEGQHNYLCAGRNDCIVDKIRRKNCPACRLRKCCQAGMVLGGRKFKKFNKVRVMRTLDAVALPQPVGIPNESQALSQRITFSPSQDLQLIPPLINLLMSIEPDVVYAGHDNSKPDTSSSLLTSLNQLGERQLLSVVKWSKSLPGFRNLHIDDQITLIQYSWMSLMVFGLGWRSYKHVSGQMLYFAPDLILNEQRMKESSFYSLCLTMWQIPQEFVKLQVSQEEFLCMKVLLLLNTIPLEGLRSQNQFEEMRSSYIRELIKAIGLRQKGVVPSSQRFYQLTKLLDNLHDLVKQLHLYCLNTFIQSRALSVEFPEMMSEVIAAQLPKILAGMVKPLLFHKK
The data set is described as follows: DRUGMATRIX: Progesterone radioligand binding (ligand: [3H] R-5020). In kind it is tissue-based, Uterus. As to conditions: Not Active = under 50% inhibition at 10 µM.

Data set [2] addresses T3, Alpha-2A adrenergic receptor (Homo sapiens, UniProt P08913).
T3 sequence (P08913 whole entry): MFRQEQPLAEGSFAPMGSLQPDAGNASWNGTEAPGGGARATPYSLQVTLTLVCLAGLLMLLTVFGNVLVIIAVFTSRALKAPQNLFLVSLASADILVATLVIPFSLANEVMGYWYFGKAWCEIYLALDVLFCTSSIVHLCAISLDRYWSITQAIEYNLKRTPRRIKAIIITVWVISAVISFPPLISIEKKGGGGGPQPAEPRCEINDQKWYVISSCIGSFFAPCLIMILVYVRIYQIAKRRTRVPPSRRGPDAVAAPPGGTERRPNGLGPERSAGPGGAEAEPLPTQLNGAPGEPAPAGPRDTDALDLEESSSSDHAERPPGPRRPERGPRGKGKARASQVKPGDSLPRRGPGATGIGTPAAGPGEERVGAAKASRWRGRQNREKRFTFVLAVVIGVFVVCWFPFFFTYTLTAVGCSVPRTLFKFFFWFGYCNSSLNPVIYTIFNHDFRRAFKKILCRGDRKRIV
In kind it is cell membranes, Sf9, Membrane. As to conditions: for Ki: read-out: Ki.

A further data set deals with Melanocortin receptor 3 (Homo sapiens, UniProt P41968). In kind it is cell membranes, Membrane. As to conditions: hek293.
Melanocortin receptor 3, sequence (P41968 whole entry): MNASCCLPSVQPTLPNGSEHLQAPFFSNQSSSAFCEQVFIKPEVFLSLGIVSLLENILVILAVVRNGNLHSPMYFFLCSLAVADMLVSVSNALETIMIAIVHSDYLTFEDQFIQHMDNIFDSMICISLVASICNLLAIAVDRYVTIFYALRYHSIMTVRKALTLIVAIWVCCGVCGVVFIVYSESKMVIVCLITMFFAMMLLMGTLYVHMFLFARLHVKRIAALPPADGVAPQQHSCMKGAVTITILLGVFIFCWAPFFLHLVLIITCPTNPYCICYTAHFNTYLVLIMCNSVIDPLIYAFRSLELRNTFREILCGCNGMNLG
A further data set has as its target Cytochrome P450 2D6 (Homo sapiens, UniProt P10635). As to conditions: bti-tn-5b1-4. Further: in other assays of this panel Not Active means under 50% inhibition at 10 µM.

Broadly, the IC50 is the concentration needed to halve the response being measured. A word on the Ki: it is a measure of affinity in units of concentration, obtained from inhibition or displacement.
Wherever Ki is given: in other assays of this panel Not Active means under 50% inhibition at 10 µM.

Cytochrome P450 2D6, sequence (P10635 whole entry): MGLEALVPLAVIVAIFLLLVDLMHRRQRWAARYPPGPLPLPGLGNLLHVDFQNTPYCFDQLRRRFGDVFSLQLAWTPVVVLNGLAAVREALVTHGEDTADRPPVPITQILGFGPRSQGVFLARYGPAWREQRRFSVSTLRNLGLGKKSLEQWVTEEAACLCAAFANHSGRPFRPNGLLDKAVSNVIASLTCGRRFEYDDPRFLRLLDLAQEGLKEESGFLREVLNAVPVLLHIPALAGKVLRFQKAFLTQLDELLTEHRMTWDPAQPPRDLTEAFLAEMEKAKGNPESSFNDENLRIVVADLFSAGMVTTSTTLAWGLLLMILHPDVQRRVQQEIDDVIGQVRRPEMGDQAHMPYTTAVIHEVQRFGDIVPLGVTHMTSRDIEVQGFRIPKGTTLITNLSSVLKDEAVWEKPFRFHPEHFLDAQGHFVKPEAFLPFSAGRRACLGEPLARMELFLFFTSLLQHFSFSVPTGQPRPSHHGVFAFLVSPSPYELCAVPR

Regarding `COc1cc(N)nc2[nH]c(-c3ccc(F)cc3)c(-c3ccncc3)c12`, the IC50 entry (at Leukotriene C4 synthase; in data set [1] (insect cells); on Progesterone receptor; in data set [2] (sf9); against Melanocortin receptor 3) was “Not Active” each time.
As for `CNS(=O)(=O)Cc1ccc2[nH]cc(CCN(C)C)c2c1`, the IC50 entry (at Leukotriene C4 synthase; in data set [1] (insect cells); at Progesterone receptor; in data set [2] (sf9); against Cytochrome P450 2D6; against Melanocortin receptor 3) was “Not Active” in each case. The Ki result at Cytochrome P450 2D6 is given as “Not Active”.
Take `CCCc1nn(C)c2c(=O)[nH]c(-c3cc(S(=O)(=O)N4CCN(C)CC4)ccc3OCC)nc12`: the IC50 entry (against Leukotriene C4 synthase; in data set [1] (insect cells); on Progesterone receptor; in data set [2] (sf9); against Cytochrome P450 2D6; against Melanocortin receptor 3) was “Not Active” in each case. In addition, the Ki entry at Cytochrome P450 2D6 is “Not Active”.
As to `COc1ccc(/C=C/C(=O)Nc2ccccc2C(=O)O)cc1OC`, the IC50 result (on Leukotriene C4 synthase; in data set [1] (insect cells); at Progesterone receptor; in data set [2] (sf9); against Cytochrome P450 2D6; against Melanocortin receptor 3) was “Not Active” each time. The Ki result at Cytochrome P450 2D6 was “Not Active”.
Turning to `CCOC(N)=O`, the IC50 result (against Leukotriene C4 synthase; in data set [1] (insect cells); at Progesterone receptor; in data set [2] (sf9); against Cytochrome P450 2D6; against Melanocortin receptor 3) was “Not Active” throughout. The Ki entry on Cytochrome P450 2D6 is recorded as “Not Active”.
For `CC(=O)Nc1nnc(S(N)(=O)=O)s1` [ACETAZOLAMIDE], the IC50 result (on Leukotriene C4 synthase; in data set [1] (insect cells); on Progesterone receptor; in data set [2] (sf9); against Cytochrome P450 2D6; against Melanocortin receptor 3) was “Not Active” throughout. The Ki result at Cytochrome P450 2D6 was “Not Active”.
Consider `O=c1[nH]c2ccccc2n1CCCN1CCC(n2c(=O)[nH]c3cc(Cl)ccc32)CC1` [DOMPERIDONE], for which the IC50 entry (at Leukotriene C4 synthase; in data set [1] (insect cells); at Progesterone receptor; against Melanocortin receptor 3) was “Not Active” in each case.
Take `CC1=C(CC(=O)O)c2cc(F)ccc2/C1=C\c1ccc(S(C)(=O)=O)cc1` [EXISULIND]: the IC50 entry (on Leukotriene C4 synthase; in data set [1] (insect cells); at Progesterone receptor; in data set [2] (sf9); against Cytochrome P450 2D6; on Melanocortin receptor 3) was “Not Active” in each case. Also, on Cytochrome P450 2D6, the Ki entry is “Not Active”.
Turning to `CC(C)OC(=O)C(C)(C)Oc1ccc(C(=O)c2ccc(Cl)cc2)cc1` [FENOFIBRATE], the IC50 result (on Leukotriene C4 synthase; in data set [1] (insect cells); at Progesterone receptor; in data set [2] (sf9); on Melanocortin receptor 3) was “Not Active” throughout.
For `OCCN1CCN(CCCN2c3ccccc3Sc3ccc(C(F)(F)F)cc32)CC1` [FLUPHENAZINE], the IC50 result against Leukotriene C4 synthase is “Not Active”; in data set [1] (read-out: IC50) it was 7990 nM; at Progesterone receptor, “Not Active”; in data set [2] (read-out: IC50), 215 nM; against Melanocortin receptor 3, “Not Active”. Also, the Ki in data set [2] was 80 nM.
Regarding `CN1C2CCCC1CC(NC(=O)c1nn(C)c3ccccc13)C2` (stereo not drawn) [GRANISETRON], the IC50 result (on Leukotriene C4 synthase; in data set [1] (insect cells); at Progesterone receptor; in data set [2] (sf9); on Melanocortin receptor 3) was “Not Active” each time.
Turning to `Nc1nc2c(c(=O)[nH]1)N(C=O)C(CNc1ccc(C(=O)N[C@@H](CCC(=O)O)C(=O)O)cc1)CN2` (stereo partly drawn) [LEUCOVORIN], the IC50 result (on Leukotriene C4 synthase; in data set [1] (insect cells); at Progesterone receptor; in data set [2] (sf9); against Cytochrome P450 2D6; against Melanocortin receptor 3) was “Not Active” throughout. For the same compound, the Ki result at Cytochrome P450 2D6 is reported as “Not Active”.
As to `C[C@@H](O)[C@H]1C(=O)N2C(C(=O)O)=C(S[C@@H]3CN[C@H](C(=O)N(C)C)C3)[C@H](C)[C@H]12` [MEROPENEM], the half-inhibitory concentration (IC50) result (against Leukotriene C4 synthase; in data set [1] (insect cells); at Progesterone receptor; in data set [2] (sf9); on Cytochrome P450 2D6; at Melanocortin receptor 3) was “Not Active” throughout. Also, the Ki entry on Cytochrome P450 2D6 is listed as “Not Active”.
For `CC[C@@H](CO)NC(=O)[C@@H]1C=C2c3cccc4c3c(cn4C)C[C@H]2N(C)C1` [METHYSERGIDE], the IC50 result is “Not Active” on Leukotriene C4 synthase; “Not Active” in data set [1] (insect cells); “Not Active” at Progesterone receptor; 1630 nM in data set [2] (read-out: IC50); “Not Active” on Cytochrome P450 2D6; “Not Active” against Melanocortin receptor 3. Moreover, the Ki in data set [2] is 611 nM; at Cytochrome P450 2D6 it was “Not Active”.
For the compound `CCN(CC)CC#CCOC(=O)C(O)(c1ccccc1)C1CCCCC1` (stereo not drawn) [OXYBUTYNIN], the half-inhibitory concentration (IC50) result (on Leukotriene C4 synthase; in data set [1] (insect cells); at Progesterone receptor; in data set [2] (sf9); on Cytochrome P450 2D6; against Melanocortin receptor 3) was “Not Active” throughout. Moreover, the Ki result at Cytochrome P450 2D6 was “Not Active”.
With `O=P(O)(O)C(O)(Cc1cccnc1)P(=O)(O)O` [RISEDRONIC ACID], the IC50 entry (against Leukotriene C4 synthase; in data set [1] (insect cells); on Progesterone receptor; in data set [2] (sf9); on Cytochrome P450 2D6; against Melanocortin receptor 3) was “Not Active” each time. Moreover, at Cytochrome P450 2D6, the Ki result is recorded as “Not Active”.
As for `CN(CCOc1ccc(CC2SC(=O)NC2=O)cc1)c1ccccn1` (stereo not drawn) [ROSIGLITAZONE], the IC50 entry (against Leukotriene C4 synthase; in data set [1] (insect cells); at Progesterone receptor; in data set [2] (sf9); on Melanocortin receptor 3) was “Not Active” throughout.
On to `C=C(C)[C@H]1Cc2c(ccc3c2O[C@@H]2COc4cc(OC)c(OC)cc4[C@@H]2C3=O)O1` [ROTENONE], for which the concentration for half-maximal inhibition (IC50) result (at Leukotriene C4 synthase; in data set [1] (insect cells); at Progesterone receptor; in data set [2] (sf9); against Cytochrome P450 2D6; at Melanocortin receptor 3) was “Not Active” throughout. The Ki entry on Cytochrome P450 2D6 was “Not Active”.
For the compound `C#CCN(C)[C@H](C)Cc1ccccc1` [SELEGILINE], the IC50 result at Leukotriene C4 synthase was “Not Active”; in data set [1] (insect cells), “Not Active”; on Progesterone receptor, “Not Active”; in data set [2] (read-out: IC50) it was 1800 nM; against Cytochrome P450 2D6, “Not Active”; against Melanocortin receptor 3, “Not Active”. The values for the Ki (in data set [2]; at Cytochrome P450 2D6) were 674 nM and “Not Active”, respectively.
Turning to `CO[C@H]1C[C@@H]2CC[C@@H](C)[C@@](O)(O2)C(=O)C(=O)N2CCCC[C@H]2C(=O)O[C@H]([C@H](C)C[C@@H]2CC[C@@H](O)[C@H](OC)C2)CC(=O)[C@H](C)/C=C(\C)[C@@H](O)[C@@H](OC)C(=O)[C@H](C)C[C@H](C)/C=C/C=C/C=C/1C` [SIROLIMUS], the IC50 result (against Leukotriene C4 synthase; in data set [1] (insect cells); at Progesterone receptor; in data set [2] (sf9); at Cytochrome P450 2D6; at Melanocortin receptor 3) was “Not Active” in each case. The Ki entry on Cytochrome P450 2D6 was “Not Active”.
As for `CN[C@@H]1[C@H](O)[C@H](NC)[C@H]2O[C@@]3(O)C(=O)C[C@@H](C)O[C@H]3O[C@@H]2[C@H]1O` [SPECTINOMYCIN], the IC50 result (at Leukotriene C4 synthase; in data set [1] (insect cells); on Progesterone receptor; in data set [2] (sf9); on Cytochrome P450 2D6; against Melanocortin receptor 3) was “Not Active” in each case. On Cytochrome P450 2D6, the Ki entry is listed as “Not Active”.
As to `CCS(=O)(=O)CCn1c([N+](=O)[O-])cnc1C` [TINIDAZOLE], the IC50 entry (at Leukotriene C4 synthase; in data set [1] (insect cells); on Progesterone receptor; in data set [2] (sf9); on Melanocortin receptor 3) was “Not Active” in each case.
As for `O=c1n(CCCN2CCN(c3cccc(Cl)c3)CC2)nc2ccccn12` [TRAZODONE], the IC50 result (at Leukotriene C4 synthase; in data set [1] (insect cells); at Progesterone receptor; against Cytochrome P450 2D6; at Melanocortin receptor 3) was “Not Active” each time. The Ki result at Cytochrome P450 2D6 is recorded as “Not Active”.
Consider `COc1ccc(CN2CCNCC2)c(OC)c1OC` [TRIMETAZIDINE], for which the IC50 result (against Leukotriene C4 synthase; in data set [1] (insect cells); on Progesterone receptor; in data set [2] (sf9); at Melanocortin receptor 3) was “Not Active” each time.

The record behind these values is ChEMBL document CHEMBL1909046, “DrugMatrix in vitro pharmacology data”.
